# Patent publication US20070027201A1 (Wyeth, priority 2005, published 2007)
# Biological target: T1, progesterone receptor (Homo sapiens, UniProt P06401)
# T1 sequence (P06401 1-933): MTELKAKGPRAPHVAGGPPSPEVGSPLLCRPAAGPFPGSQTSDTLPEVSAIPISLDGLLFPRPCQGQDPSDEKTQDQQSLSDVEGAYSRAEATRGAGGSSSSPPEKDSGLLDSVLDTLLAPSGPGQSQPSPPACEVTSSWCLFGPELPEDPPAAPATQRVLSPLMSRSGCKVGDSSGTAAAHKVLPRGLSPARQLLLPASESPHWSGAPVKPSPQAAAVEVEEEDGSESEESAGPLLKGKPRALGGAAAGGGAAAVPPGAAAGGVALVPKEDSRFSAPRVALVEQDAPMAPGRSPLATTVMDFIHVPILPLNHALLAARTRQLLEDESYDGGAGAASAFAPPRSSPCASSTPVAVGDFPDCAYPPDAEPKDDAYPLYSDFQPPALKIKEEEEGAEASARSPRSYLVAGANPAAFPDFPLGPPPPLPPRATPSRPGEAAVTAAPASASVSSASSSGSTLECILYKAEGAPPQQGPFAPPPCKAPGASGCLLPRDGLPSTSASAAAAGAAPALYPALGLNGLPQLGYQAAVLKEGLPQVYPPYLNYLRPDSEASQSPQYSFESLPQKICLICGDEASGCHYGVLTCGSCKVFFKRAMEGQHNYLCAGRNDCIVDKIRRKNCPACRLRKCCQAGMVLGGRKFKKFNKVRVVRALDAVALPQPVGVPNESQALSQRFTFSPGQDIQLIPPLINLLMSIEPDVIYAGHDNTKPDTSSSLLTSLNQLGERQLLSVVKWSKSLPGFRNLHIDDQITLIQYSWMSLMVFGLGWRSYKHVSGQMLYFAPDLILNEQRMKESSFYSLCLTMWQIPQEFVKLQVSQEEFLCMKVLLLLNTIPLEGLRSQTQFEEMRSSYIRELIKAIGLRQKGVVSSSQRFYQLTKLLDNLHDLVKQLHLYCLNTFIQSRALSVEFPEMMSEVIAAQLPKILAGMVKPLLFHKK
# Assay: T47D alkaline phosphatase assay for progesterone receptor modulator (antagonist) activity
# Assay type: cell-based
# Set-up: endogenous in cells; host or cells: T47D cells
# Conditions: T47D cells; for IC50: antagonist mode in the presence of 1 nM progesterone, 24 hours; for Antagonist Efficacy: in the presence of 1 nM progesterone; for inhibition at 3 µM: at Active Dose 3000 nM
# Experimental: An assay was performed to identify compounds having progesterone receptor modulator activity. This assay identifies progestins or antiprogestins by determining a compound's effect on alkaline phosphatase activity in T47D cells.
# Culture medium: DMEM:F12 (1:1) (GIBCO, BRL) supplemented with 5% (v/v) charcoal stripped fetal bovine serum (not heat-inactivated), 100 U/mL penicillin, 100 μg/mL streptomycin, and 2 mM the GlutaMax® reagent (GIBCO, BRL).
# Alkaline phosphatase assay buffer: • I. 0.1M Tris-HCl, pH 9.8, containing 0.2% the Triton™ X-100 reagent • II. 0.1M Tris-HCl, pH 9.8, containing 4 mM p-nitrophenyl phosphate (Sigma).
# Frozen T47D cells are thawed in a 37° C. water bath and diluted to 280,000 cells/mL in culture medium. To each well in a 96-well plate (Falcon, Becton Dickinson Labware), 180 μL of diluted cell suspension is added.
# Twenty μL of reference or test compounds diluted in the culture medium is then added to each well. When testing for progestin antagonist activity, reference antiprogestins or test compounds are added in the presence of 1 nM progesterone. The cells are incubated at 37° C. in a 5% CO2/humidified atmosphere for 24 hours.
# For high throughput screening, one concentration of each compound will be tested at 0.3 μg/mL. Based on an average molecular weight of 300 g/mol for the compounds in the library, the concentration is approximately 1 μM. Subsequently, active compounds will be tested in dose response assays to determine EC50 and IC50.
# At the end of treatment, the medium is removed from the plate. Fifty μL of assay buffer I is added to each well. The plates are shaken in a titer plate shaker for 15 minutes. Then 150 μL of assay buffer II is added to each well. Optical density measurements are taken at 5 minute intervals for 30 minutes at a test wavelength of 405 nm.
# Analysis of dose-response data. For reference and test compounds, a dose response curve is generated for dose (x-axis) vs. the rate of enzyme reaction (slope) (y-axis). Square root-transformed data are used for analysis of variance and nonlinear dose response curve fitting for both agonist and antagonist modes. Huber weighting is used to down-weight the effects of outliers. EC50 or IC50 values are calculated from the retransformed values. The JMP® software (SAS Institute, Inc.) is used for both one-way analysis of variance and non-linear dose response analysis in both single dose and dose response studies.
# Progesterone and trimegestone are reference progestins and RU486 is the reference antiprogestin. All reference compounds are run in full dose response curves and the EC50 and IC50 values are calculated.
# In the table provided above, the IC50 values show the relative progesterone receptor antagonist activity in this assay. Lower numbers are indicative of higher potency, i.e., greater PR antagonist activity. Further, the assay has a standard deviation of about ±6.
Compound,IC50 [nM],further results
"Cn1c(C#N)ccc1-c1ccc(NS(C)(=O)=O)cc1F [Example 40, N-[4-(5-cyano-1-methyl-1H-pyrrol-2-yl)-3-fluorophenyl]methanesulfonamide]",18.3,Active Dose: 10 µM
"CCS(=O)(=O)Nc1ccc(-c2ccc(C#N)n2C)c(F)c1 [Example 41, N-[4-(5-cyano-1-methyl-1H-pyrrol-2-yl)-3-fluorophenyl]ethanesulfonamide]",3.8,Active Dose: 10 µM
"CCCS(=O)(=O)Nc1ccc(-c2ccc(C#N)n2C)c(F)c1 [Example 42, N-[4-(5-cyano-1-methyl-1H-pyrrol-2-yl)-3-fluorophenyl]propane-1-sulfonamide]",3.5,
"CCCCS(=O)(=O)Nc1ccc(-c2ccc(C#N)n2C)c(F)c1 [Example 43, N-[4-(5-cyano-1-methyl-1H-pyrrol-2-yl)-3-fluorophenyl]butane-1-sulfonamide]",6.6,
"CC(C)S(=O)(=O)Nc1ccc(-c2ccc(C#N)n2C)c(F)c1 [Example 44, N-[4-(5-cyano-1-methyl-1H-pyrrol-2-yl)-3-fluorophenyl]propane-2-sulfonamide]",9.3,Active Dose: 10 µM
"Cn1c(C#N)ccc1-c1cc(F)c(NS(C)(=O)=O)cc1F [Example 46, N-[4-(5-cyano-1-methyl-1H-pyrrol-2-yl)-2,5-difluorophenyl]-methane-sulfonamide]",39.8,Active Dose: 10 µM
"CCS(=O)(=O)Nc1cc(F)c(-c2ccc(C#N)n2C)cc1F [Example 47, N-[4-(5-cyano-1-methyl-1H-pyrrol-2-yl)-2,5-difluorophenyl]ethane-sulfonamide]",22.1,
"CCCCS(=O)(=O)Nc1cc(F)c(-c2ccc(C#N)n2C)cc1F [Example 49, N-[4-(5-cyano-1-methyl-1H-pyrrol-2-yl)-2,5-difluorophenyl]butane-1-sulfonamide]",267,
"CC(C)S(=O)(=O)Nc1cc(F)c(-c2ccc(C#N)n2C)cc1F [Example 50, N-[4-(5-cyano-1-methyl-1H-pyrrol-2-yl)-2,5-difluorophenyl]propane-2-sulfonamide]",231,
"Cn1c(C#N)ccc1-c1ccc(NS(C)(=O)=O)cc1C(F)(F)F [Example 52, N-[4-(5-cyano-1-methyl-1H-pyrrol-2-yl)-3-(trifluoromethyl)phenyl]methane-sulfonamide]",13.4,
"CCS(=O)(=O)Nc1ccc(-c2ccc(C#N)n2C)c(C(F)(F)F)c1 [Example 53, N-[4-(5-cyano-1-methyl-1H-pyrrol-2-yl)-3-(trifluoromethyl)phenyl]ethane-sulfonamide]",10.2,
"CCCS(=O)(=O)Nc1ccc(-c2ccc(C#N)n2C)c(C(F)(F)F)c1 [Example 54, N-[4-(5-cyano-1-methyl-1H-pyrrol-2-yl)-3-(trifluoromethyl)phenyl]propane-1-sulfonamide]",9.4,
"CCCCS(=O)(=O)Nc1ccc(-c2ccc(C#N)n2C)c(C(F)(F)F)c1 [Example 55, N-[4-(5-cyano-1-methyl-1H-pyrrol-2-yl)-3-(trifluoromethyl)phenyl]butane-1-sulfonamide]",53.7,
"CC(C)S(=O)(=O)Nc1ccc(-c2ccc(C#N)n2C)c(C(F)(F)F)c1 [Example 56, N-[4-(5-cyano-1-methyl-1H-pyrrol-2-yl)-3-(trifluoromethyl)phenyl]propane-2-sulfonamide]",25.2,
"Cn1c(C#N)ccc1-c1ccc(N2CCCS2(=O)=O)cc1 [Example 57, 5-[4-(1,1-dioxidoisothiazolidin-2-yl)phenyl]-1-methyl-1H-pyrrole-2-carbonitrile]",180,
"Cn1c(C#N)ccc1-c1ccc(NS(C)(=O)=O)c(OC(F)(F)F)c1 [Example 59, N-[4-(5-cyano-1-methyl-1H-pyrrol-2-yl)-2-(trifluoromethoxy)phenyl]methane-sulfonamide]",32.2,
"CCS(=O)(=O)Nc1ccc(-c2ccc(C#N)n2C)cc1OC(F)(F)F [Example 60, N-[4-(5-cyano-1-methyl-1H-pyrrol-2-yl)-2-(trifluoromethoxy)phenyl]ethane-sulfonamide]",35.8,
"CCCS(=O)(=O)Nc1ccc(-c2ccc(C#N)n2C)cc1OC(F)(F)F [Example 61, N-[4-(5-cyano-1-methyl-1H-pyrrol-2-yl)-2-(trifluoromethoxy)phenyl]propane-1-sulfonamide]",40.7,
"CCS(=O)(=O)Nc1ccc(-c2ccc(C#N)[nH]2)cc1 [Example 65, N-[4-(5-cyano-1H-pyrrol-2-yl)phenyl]ethanesulfonamide]",68.6,Antagonist Efficacy: 85%
"CCn1c(C#N)ccc1-c1ccc(NS(=O)(=O)CC)cc1 [Example 66, N-[4-(5-cyano-1-ethyl-1H-pyrrol-2-yl)phenyl]ethanesulfonamide]",84.1,Antagonist Efficacy: 80%
"CCCn1c(C#N)ccc1-c1ccc(NS(=O)(=O)CC)cc1 [Example 67, N-[4-(5-cyano-1-propyl-1H-pyrrol-2-yl)phenyl]ethanesulfonamide]",721,
"CCCCn1c(C#N)ccc1-c1ccc(NS(=O)(=O)CC)cc1 [Example 68, N-[4-(1-butyl-5-cyano-1H-pyrrol-2-yl)phenyl]ethanesulfonamide]",546,
"C=CCn1c(C#N)ccc1-c1ccc(NS(=O)(=O)CC)cc1 [Example 69, N-[4-(1-allyl-5-cyano-1H-pyrrol-2-yl)phenyl]ethanesulfonamide]",600,
"C#CCn1c(C#N)ccc1-c1ccc(NS(=O)(=O)CC)cc1 [Example 70, N-[4-(5-cyano-1-prop-2-yn-1-yl-1H-pyrrol-2-yl)phenyl]ethanesulfonamide]",797,
"CCS(=O)(=O)Nc1ccc(-c2ccc(C#N)n2CCCc2ccccc2)cc1 [Example 71, N-{4-[5-cyano-1-(3-phenylpropyl)-1H-pyrrol-2-yl]phenyl}ethanesulfonamide]",,Active Dose: 3 µM; inhibition at 3 µM: 15%
"Cn1c(C#N)ccc1-c1ccc(NS(C)(=O)=O)cc1C#N [Example 74, N-[3-cyano-4-(5-cyano-1-methyl-1H-pyrrol-2-yl)phenyl]methanesulfonamide]",198,
"CCS(=O)(=O)Nc1ccc(-c2ccc(C#N)n2C)c(C#N)c1 [Example 75, N-[3-cyano-4-(5-cyano-1-methyl-1H-pyrrol-2-yl)phenyl]ethanesulfonamide]",124,
"CCCS(=O)(=O)Nc1ccc(-c2ccc(C#N)n2C)c(C#N)c1 [Example 76, N-[3-cyano-4-(5-cyano-1-methyl-1H-pyrrol-2-yl)phenyl]propane-1-sulfonamide]",86.8,
"Cn1c(C#N)ccc1-c1ccc(NS(C)(=O)=O)c(C#N)c1 [Example 77, N-[2-cyano-4-(5-cyano-1-methyl-1H-pyrrol-2-yl)phenyl]methanesulfonamide]",,Active Dose: 3 µM; inhibition at 3 µM: 50%
